Measurements reported in patent publication US20050159345A1 (Boehringer Ingelheim International GmbH, priority 2002, published 2005).

Tested on: HCV replicon 1b
Experiment: Cell-based HCV 1b RNA replicon assay
Conditions: Hepatitis C virus, 72 h; Huh-7-derived replicon cells, 3 day incubation, HCV RNA by RT-PCR
Experimental: These cells were used to establish a sensitive HCV RNA replication cell-based assay for testing candidate test compounds.
Huh7 cells that stably maintain a subgenomic HCV replicon were established as previously described (Lohman et al. 1999; WO 02/052015). The cells were seeded into a 96 well cell culture cluster at 1×10^4 cells per well in DMEM complemented with 10% FBS, PenStrep (Life Technologies) and […] Geneticin. Cells were incubated in a 5% CO2 incubator at 37° C. until addition of various concentrations of the test compound.
The test compound was prepared for use in the assay as follows. The test compound in 100% DMSO was added diluted in assay Medium for a final DMSO concentration of 0.5% and the solution was sonicated for 15 min and filtered through a […] Millipore Filter Unit. Serial dilutions of the test compounds were prepared using Assay Medium (containing 0.5% DMSO).
Cell culture medium was aspirated from the 96-well plate containing the cells and the appropriate dilution of test compound in assay medium was transferred to independent wells of the cell culture plate which was incubated at 37° with 5% CO2.
Following a 3 day-incubation period, the cells were washed with PBS and total cellular RNA was extracted with the RNeasy Mini Kit® and Qiashredder® from Qiagen. RNA from each well was eluted in 50 μL of H2O. RNA was quantified by optical density at 260 nm on the Cary 1E® UV-Visible spectrophotometer. The HCV RNA replicon copy number was evaluated by real-time RT-PCR with the Abi Prism® 7700 Sequence Detection System. The TAQMAN E® RT-PCR kit provides a system for the detection and analysis of RNA. Direct detection of the reverse transcription polymerase chain reaction (RT-PCR) product with no downstream processing was accomplished by monitoring the increase in fluorescence of a dye-labeled DNA probe. The nucleotide sequence of both primers and probe was located in the 5′ region of the HCV genome. The replicon copy number was then evaluated using a standard curve made with known amounts of replicon copy (supplemented with 50 ng of wild type Huh-7 RNA) assayed in the same reaction mix. The following thermal cycle parameters were used for the RT-PCR reaction on the ABI Prism® 7700 Sequence Detection System. Conditions were optimized for HCV detection. Quantification is based on the threshold cycle, where the amplification plot crosses a defined fluorescence threshold. Comparison of the threshold cycles provides a highly sensitive measure of relative template concentration in different samples. Monitoring during early cycles, when PCR fidelity is at its highest, provides precise data for accurate quantification. The relative template concentration can be converted to real numbers by using the standard curve of HCV with known number of copy.
The level of inhibition (% inhibition) of each well containing test compound was calculated with the following equation (CN═HCV Replicon copy number): [formula]
The calculated % inhibition values were then used to determine EC50, slope factor (n) and maximum inhibition (Imax) by the non-linear regression routine NLIN procedure of SAS using the following equation: [formula]

SMILES | EC50
COc1ccc2c(O[C@@H]3C[C@H]4C(=O)N[C@]5(C(=O)O)CC5/C=C\CCCCC[C@H](NC(=O)OC(C)(C)C)C(=O)N4C3)cc(-c3csc(NC(C)=O)n3)nc2c1 (stereo partly drawn) [III] | 4.7 nM
COc1ccc2c(O[C@@H]3C[C@H]4C(=O)N[C@]5(C(=O)O)CC5/C=C\CCCCC[C@H](NC(=O)OC(C)(C)C)C(=O)N4C3)cc(-c3ccccc3)nc2c1 (stereo partly drawn) [II] | 27 nM
COc1ccc2c(O[C@@H]3C[C@H]4C(=O)N[C@]5(C(=O)O)CC5/C=C\CCCCC[C@H](NC(=O)OC5CCCC5)C(=O)N4C3)cc(-c3csc(NC(C)C)n3)nc2c1 (stereo partly drawn) [IV] | 1 nM
